These results are taken from US9113629B2, “4-amino-6-(4-substituted-phenyl)-picolinates and 6-amino-2-(4-substituted-phenyl)-pyrimidine-4-carboxylates and their use as herbicides” (DOW AGROSCIENCES LLC, priority 2013, dated 2015).

SMILES strings stand for the structures.

What all share (format): in vivo
Assay [1] concerns AMARE: redroot pigwseed (Amaranthus retroflexus). Kind of assay: Pre-emergent Test I herbicidal activity. The note with it: pre-emergence, 336 h, read-out: Visual Growth Reduction (%) 14 Days After Application, AMARE; for pest or weed control at 3840 g/ha: 3.84 kg ai/ha. The protocol:
(§1) Pre-emergent Test I Seeds of test species were planted into round plastic pots (5-inch diameter) containing sandy loam soil. After planting, all pots were sub-irrigated 16 h prior to compound application. Compounds were dissolved in a 97:3 v/v (volume/volume) mixture of acetone and dimethyl sulfoxide (DMSO) and diluted to the appropriate concentration in a final application solution containing water, acetone, isopropanol, DMSO and Agri-dex (crop oil concentrate) in a 59:23:15:1.0:1.5 v/v ratio and 0.02% w/v (weight/volume) of Triton X-155 to obtain the spray solution containing the highest application rate. Additional application rates were obtained by serial dilution of the high rate solution with the above application solution. Formulated compound (2.7 mL) was applied pipetted evenly over the soil surface followed by incorporation with water (15 mL). Following treatment, pots were returned to the greenhouse for the duration of the experiment. The greenhouse was programmed for an approximate 15 h photoperiod which was maintained at about 23-29° C. during the day and 22-28° C. during the night. Nutrients and water were added on a regular basis through surface irrigation and supplemental lighting was provided with overhead metal halide 1000-Watt lamps as necessary. Herbicidal effect ratings were obtained 14 days after treatment. All evaluations were made relative to appropriate controls on a scale of 0 to 100 where 0 represents no herbicidal effect and 100 represents plant death or lack of emergence from the soil.

Assay [2] concerns AVEFA: wild oats (Avena fatua). The assay can be described thus: Pre-emergent Test I herbicidal activity. The note with it: pre-emergence, 336 h, read-out: Visual Growth Reduction (%) 14 Days After Application, AVEFA; for pest or weed control at 3840 g/ha: 3.84 kg ai/ha. The procedure: as §1
Assay [3] has as its system ECHCG: barnyardgrass (Echinochloa crus-galli). The assay can be described thus: Pre-emergent Test I herbicidal activity. The note with it: pre-emergence, 336 h, read-out: Visual Growth Reduction (%) 14 Days After Application, ECHCG; for pest or weed control at 3840 g/ha: 3.84 kg ai/ha. The procedure:
as §1

Assay [4] concerns HELAN: sunflower (Helianthus annuus). The assay can be described thus: Pre-emergent Test I herbicidal activity. The note with it: pre-emergence, 336 h, read-out: Visual Growth Reduction (%) 14 Days After Application, HELAN; for pest or weed control at 3840 g/ha: 3.84 kg ai/ha. The protocol:
as §1

Assay [5] has as its system IPOHE: ivyleaf morningglory (Ipomoea hederecea). Kind of assay: Pre-emergent Test I herbicidal activity. The note with it: pre-emergence, 336 h, read-out: Visual Growth Reduction (%) 14 Days After Application, IPOHE; for pest or weed control at 3840 g/ha: 3.84 kg ai/ha. The procedure: as §1
Assay [6] has as its system SETFA: giant foxtail (Setaria faberi). Kind of assay: Pre-emergent Test I herbicidal activity. The note with it: pre-emergence, 336 h, read-out: Visual Growth Reduction (%) 14 Days After Application, SETFA; for pest or weed control at 3840 g/ha: 3.84 kg ai/ha. The procedure:
as §1

The subject of assay [7] is ALOMY: black-grass (Alopecurus myosuroides). Kind of assay: Post-emergent Test III, herbicidal activity in wheat and barley. The note with it: for pest or weed control at 35 g/ha / pest or weed control at 70 g/ha / pest or weed control at 140 g/ha: Alopecurus myosuroides, post-emergence, 504 h, read-out: Visual Growth Reduction (%) 21 Days After Application ALOMY; for pest or weed control at 35 g/ha: 35 g ai/ha; for pest or weed control at 70 g/ha: 70 g ai/ha; for pest or weed control at 140 g/ha: 140 g ai/ha; for GR50 ALOMY / GR80 ALOMY: probit analysis, 21 days after application; for GR50 ALOMY: dose for growth reduction of 50 percent; for GR80 ALOMY: dose for growth reduction of 80 percent. A digest of the protocol: (§2)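 Plants at the second to third true-leaf stage, grown in a greenhouse at about 18/17 °C with a 14 h photoperiod, were sprayed post-emergence at 187 L/ha with the high rate and ½× to 1/16× serial dilutions in an acetone/DMSO/crop-oil/surfactant carrier. Injury was rated visually at 21 d on a 0–100% scale, and GR20–GR90 were derived by probit analysis.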

The test system of another assay is LAMSS. The description is as above. The note with it: for pest or weed control at 35 g/ha / pest or weed control at 70 g/ha / pest or weed control at 140 g/ha: post-emergence, 504 h, read-out: Visual Growth Reduction (%) 21 Days After Application LAMSS; for pest or weed control at 35 g/ha: 35 g ai/ha; for pest or weed control at 70 g/ha: 70 g ai/ha; for pest or weed control at 140 g/ha: 140 g ai/ha; for GR50 LAMSS / GR80 LAMSS: probit analysis, 21 days after application; for GR50 LAMSS: dose for growth reduction of 50 percent; for GR80 LAMSS: dose for growth reduction of 80 percent. A digest of the protocol: as §2

In assay [8] the test system is VERPE: bird's-eye speedwell (veronica persica). The assay is described as above. The note with it: for pest or weed control at 35 g/ha / pest or weed control at 70 g/ha / pest or weed control at 140 g/ha: Veronica persica, post-emergence, 504 h, read-out: Visual Growth Reduction (%) 21 Days After Application VERPE; for pest or weed control at 35 g/ha: 35 g ai/ha; for pest or weed control at 70 g/ha: 70 g ai/ha; for pest or weed control at 140 g/ha: 140 g ai/ha; for GR50 VERPE / GR80 VERPE: probit analysis, 21 days after application; for GR50 VERPE: dose for growth reduction of 50 percent; for GR80 VERPE: dose for growth reduction of 80 percent. A digest of the protocol:
as §2

Regarding `C=Cc1c(C(=O)OC)nc(-c2ccc(Cl)c(F)c2)c(F)c1N` [Compound 215, methyl 4-amino-6-(4-chloro-3-fluorophenyl)-5-fluoro-3-vinylpicolinate], the pest or weed control at 3960 g/ha in [1] (3.96 kg ai/ha) fell in the range of 95 to 100%; in assay [2] (3.96 kg ai/ha), 85 to 94%; in assay [3] (3.96 kg ai/ha), 95 to 100%; in assay [4] (3.96 kg ai/ha), 95 to 100%; in assay [5] (3.96 kg ai/ha), 95 to 100%; in [6] (3.96 kg ai/ha), 85 to 94%.

For the compound `COC(=O)c1nc(-c2ccc(C(F)F)c(F)c2)cc(N)c1Cl` [Compound 196], the pest or weed control at 3840 g/ha in [1] is 95 to 100%; in assay [3] it was 85 to 94%; in assay [4], 95 to 100%; in [5] it was 95 to 100%; in assay [6], 95 to 100%.

Take `COC(=O)c1nc(-c2ccccc2)c(F)c(N)c1Cl` [Compound 181]: the pest or weed control at 1760 g/ha in [1] (1.76 kg ai/ha) lay in the range of 95 to 100%; in [2] (1.76 kg ai/ha), 0 to 29%; in assay [4] (1.76 kg ai/ha), 85 to 94%; in assay [5] (1.76 kg ai/ha) it was 85 to 94%; in assay [6] (1.76 kg ai/ha), 75 to 84%.

Regarding `N#Cc1ccc(-c2nc(C(=O)O)c(Cl)c(N)c2F)cc1` [Compound 39], the pest or weed control at 2000 g/ha in [1] (2 kg ai/ha) fell in the range of 95 to 100%. Also, the pest or weed control at 2000 g/ha in [2] (2 kg ai/ha) lay in the range of 85 to 94%. For the same compound, the pest or weed control at 2000 g/ha in [3] (2 kg ai/ha) lay within 95 to 100%. The pest or weed control at 2000 g/ha in [4] (2 kg ai/ha) fell in the range of 95 to 100%. Besides, the pest or weed control at 2000 g/ha in assay [5] (2 kg ai/ha) lay in the range of 95 to 100%. Moreover, in assay [7], the pest or weed control at 35 g/ha lay in the range of 0 to 29%, the pest or weed control at 70 g/ha lay within 45 to 59%, the pest or weed control at 140 g/ha was 45 to 59% and the “GR50 ALOMY” value stood at 111 g ai/ha. Further, the “GR80 ALOMY” value in [7] is >140 g ai/ha. Also, in the assay on LAMSS, the pest or weed control at 35 g/ha lay in the range of 95 to 100%, the pest or weed control at 70 g/ha was 95 to 100%, the pest or weed control at 140 g/ha lay in the range of 95 to 100% and the “GR50 LAMSS” value was determined as 1 g ai/ha. Besides, the “GR80 LAMSS” value in the assay with LAMSS is 1 g ai/ha. Further, in [8], the pest or weed control at 35 g/ha fell in the range of 85 to 94%, the pest or weed control at 70 g/ha was 85 to 94%, the pest or weed control at 140 g/ha lay in the range of 95 to 100% and the “GR50 VERPE” value is reported as 1 g ai/ha. Further, in assay [8], the “GR80 VERPE” value is 12 g ai/ha.

For the compound `COC(=O)c1nc(-c2ccc(OC(F)F)cc2)c(F)c(N)c1Cl` [Compound 85], the pest or weed control at 3760 g/ha in assay [1] (3.76 kg ai/ha) is 95 to 100%. Also, in assay [2] (3.76 kg ai/ha), the pest or weed control at 3760 g/ha was in the range of 75 to 84%. Also, the pest or weed control at 3760 g/ha in [3] (3.76 kg ai/ha) is 95 to 100%. In [4] (3.76 kg ai/ha), the pest or weed control at 3760 g/ha lay within 95 to 100%. Also, in assay [5] (3.76 kg ai/ha), the pest or weed control at 3760 g/ha lay within 30 to 44%. Moreover, in assay [7], the pest or weed control at 35 g/ha was 0 to 29%, the pest or weed control at 70 g/ha is 0 to 29%, the pest or weed control at 140 g/ha is 0 to 29% and the “GR50 ALOMY” value is reported as >140 g ai/ha. Also, the “GR80 ALOMY” value in assay [7] is listed as >140 g ai/ha. In the assay with LAMSS, the pest or weed control at 35 g/ha was in the range of 85 to 94%, the pest or weed control at 70 g/ha is 85 to 94%, the pest or weed control at 140 g/ha fell in the range of 85 to 94% and the “GR50 LAMSS” value was determined as 0 g ai/ha. For the same compound, in the assay on LAMSS, the “GR80 LAMSS” value is given as 6 g ai/ha. Besides, in assay [8], the pest or weed control at 35 g/ha lay in the range of 30 to 44%, the pest or weed control at 70 g/ha fell in the range of 45 to 59%, the pest or weed control at 140 g/ha lay in the range of 60 to 74% and the “GR50 VERPE” value amounted to 90 g ai/ha. Moreover, the “GR80 VERPE” value in assay [8] is reported as >140 g ai/ha.

Turning to `COC(=O)c1nc(-c2ccc(C#N)cc2)c(F)c(N)c1Cl` [Compound 142], the pest or weed control at 3840 g/ha in [1] fell in the range of 95 to 100%. For the same compound, the pest or weed control at 3840 g/ha in assay [2] lay in the range of 95 to 100%. Also, the pest or weed control at 3840 g/ha in assay [3] fell in the range of 30 to 44%. The pest or weed control at 3840 g/ha in assay [4] was in the range of 95 to 100%. The pest or weed control at 3840 g/ha in assay [5] was in the range of 95 to 100%. Moreover, in assay [7], the pest or weed control at 35 g/ha was in the range of 0 to 29%, the pest or weed control at 70 g/ha lay in the range of 0 to 29%, the pest or weed control at 140 g/ha is 0 to 29% and the “GR50 ALOMY” value is >140 g ai/ha. The “GR80 ALOMY” value in assay [7] was >140 g ai/ha. Moreover, in the assay with LAMSS, the pest or weed control at 35 g/ha fell in the range of 85 to 94%, the pest or weed control at 70 g/ha is 85 to 94%, the pest or weed control at 140 g/ha is 85 to 94% and the “GR50 LAMSS” value is given as 0 g ai/ha. The “GR80 LAMSS” value in the assay on LAMSS was 5 g ai/ha. Further, in assay [8], the pest or weed control at 35 g/ha was in the range of 75 to 84%, the pest or weed control at 70 g/ha was in the range of 85 to 94%, the pest or weed control at 140 g/ha was 85 to 94% and the “GR50 VERPE” value came to 5 g ai/ha. The “GR80 VERPE” value in assay [8] turned out to be 40 g ai/ha.

For `COC(=O)c1nc(-c2ccc(C#N)cc2F)cc(N)c1Cl` [Compound 16], the pest or weed control at 3840 g/ha in [1] was 95 to 100%; in assay [2] it was 30 to 44%; in assay [3], 30 to 44%; in assay [4] it was 95 to 100%; in assay [5], 95 to 100%; in assay [6], 0 to 29%.
